For three compounds, IC50 results are on record in paper doi:10.1101/637801v3 (biorxiv, 2019).

The IC50 is the point on the concentration scale where inhibition reaches its midpoint.

Molecules are shown by their SMILES.

For assay [1], the target named is rPtxS1 (recombinant pertussis toxin S1 subunit, wild type) (Bordetella pertussis, UniProt P04977). As to the kind of experiment: fluorometric NAD+ consumption assay. The assay is classed as biochemical.
Assay [2] concerns the target pertussis AB5 holotoxin (PtxS1-S5) (Bordetella pertussis, UniProt P04977). Put plainly: cell-based.

rPtxS1 (recombinant pertussis toxin S1 subunit, wild type), sequence (P04977 35-221 limits assumed): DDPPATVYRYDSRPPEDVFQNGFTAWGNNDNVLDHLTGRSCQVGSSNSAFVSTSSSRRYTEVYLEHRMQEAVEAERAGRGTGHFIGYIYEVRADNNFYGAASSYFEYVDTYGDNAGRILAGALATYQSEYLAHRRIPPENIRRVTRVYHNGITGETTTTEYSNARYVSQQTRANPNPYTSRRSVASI
pertussis AB5 holotoxin (PtxS1-S5), sequence (P04977 whole entry, looked up): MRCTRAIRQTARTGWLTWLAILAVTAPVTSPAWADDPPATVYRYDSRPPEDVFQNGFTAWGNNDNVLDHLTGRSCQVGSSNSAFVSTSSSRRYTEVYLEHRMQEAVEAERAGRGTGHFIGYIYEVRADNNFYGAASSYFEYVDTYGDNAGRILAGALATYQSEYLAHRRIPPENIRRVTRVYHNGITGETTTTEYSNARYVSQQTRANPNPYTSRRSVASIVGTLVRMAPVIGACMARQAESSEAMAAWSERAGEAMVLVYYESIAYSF

For the compound `Sc1nc2c[nH]c(S)nc-2n1` [NSC29193, purine-2,8-dithiol], the 50% inhibitory concentration (IC50) in assay [1] came out at 6.8 µM.
As to `O=C(/C=C/c1cccnc1)/C=C/c1cccnc1` [NSC149286], the half-inhibitory concentration (IC50) in assay [1] came out at 20 µM.
`O=[N+]([O-])c1ccc(Sc2cccc[n+]2[O-])c2nonc12` [NSC228155, 7-nitro-4-(1-oxidopyridin-1-ium-2-yl)sulfanyl-2,1,3-benzoxadiazole]: the IC50 in assay [1] stood at 3 µM; in assay [2], 2.35 µM.
